Experimental data as given in patent EP3800188A1, “SUBSTITUTED PYRAZOLOPYRIMIDINES AS IRAK4 INHIBITORS” (Bayer AG, priority 2019, dated 2021).

Target: T1, human IRAK4 (Homo sapiens, UniProt Q9NWZ3)
T1 construct: GST (N); made in house; host or cells: baculovirus-infected Hi5 (BTI-TN-5B1-4) insect cells
T1 sequence (Q9NWZ3 1-460): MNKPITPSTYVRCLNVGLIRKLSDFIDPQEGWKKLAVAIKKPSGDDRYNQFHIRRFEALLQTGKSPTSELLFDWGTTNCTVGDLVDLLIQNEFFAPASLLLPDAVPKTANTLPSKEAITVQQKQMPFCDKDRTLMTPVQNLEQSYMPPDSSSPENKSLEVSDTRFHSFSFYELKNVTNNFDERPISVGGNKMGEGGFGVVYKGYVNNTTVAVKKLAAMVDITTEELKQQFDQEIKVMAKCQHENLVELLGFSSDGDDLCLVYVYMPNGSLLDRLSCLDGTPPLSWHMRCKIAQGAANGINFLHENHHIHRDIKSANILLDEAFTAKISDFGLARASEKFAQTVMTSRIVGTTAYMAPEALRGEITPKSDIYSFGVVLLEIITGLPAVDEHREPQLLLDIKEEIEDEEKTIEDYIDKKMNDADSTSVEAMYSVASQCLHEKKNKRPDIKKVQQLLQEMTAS
Experiment: Human IRAK4 kinase activity inhibition assay (IRAK4 TR-FRET assay)
Type: biochemical
Conditions: 1 mM ATP, GST-human IRAK4, average or median values
Experimental: The IRAK4-inhibitory activity of the inventive substances was measured in the IRAK4 TR-FRET assay (TR-FRET = Time Resolved Fluorescence Resonance Energy Transfer) described hereinafter.
Recombinant fusion protein from N-terminal GST (glutathione S-transferase) and human IRAK4, expressed in baculovirus-infected insect cells (Hi5, BTI-TN-5B1-4, cell line purchased from Invitrogen, catalogue No. B855-02) and purified via affinity chromatography, was used as enzyme. The substrate used for the kinase reaction was the biotinylated peptide biotin-Ahx-[…] (C-terminus in amide form) which can be purchased, for example, from Biosyntan GmbH (Berlin-Buch). For the assay, 11 different concentrations in the range from 20 µM to 0.073 nM were prepared from a 2 mM DMSO solution of the test substance. 50 nl of the respective 100fold concentrated test compound solutions in DMSO were pipetted into a black low-volume 384-well microtitre plate or a black 1536-well microtiter plate (both Greiner Bio-One, Frickenhausen, Germany), 2 µl of a solution of IRAK4 in assay buffer [50 mM HEPES pH 7.5, 5mM MgCl2, 1.0 mM dithiothreitol, 30 µM activated sodium orthovanadate, 0.1% (w/v) of bovine gamma-globulin (BGG) 0.04% (v/v) nonidet-P40 (Sigma)] were added and the mixture was incubated for 15 min to allow prebinding of the substances to the enzyme prior to the kinase reaction. […] The concentration of the IRAK4 was adjusted to the respective activity of the enzyme and set such that the assay was carried out in the linear range. Typical concentrations were in the order of about 0.2 nM. The reaction was stopped by addition of 5 µl of a solution of TR-FRET detection reagents [0.1 µM streptavidin-XL665 (Cisbio Bioassays; France, catalogue No. 610SAXLG)] and 1.5 nM anti-phosphoserine antibody [Merck Millipore, "STK Antibody", catalogue No. 35-002] and 0.6 nM LANCE EU-W1024-labelled anti-mouse-IgG antibody (Perkin-Elmer, product No. AD0077; alternatively, it is possible to use a terbium cryptate-labelled anti-mouse-IgG antibody from Cisbio Bioassays) in aqueous EDTA solution (100 mM EDTA, 0.4 % [w/v] bovine serum albumin [BSA] in 25 mM HEPES pH 7.5). The resulting mixture was incubated at 22°C for 1 h to allow formation of a complex of the biotinylated phosphorylated substrate and the detection reagents. The amount of the phosphorylated substrate was then evaluated by measuring the resonance energy transfer from europium chelate-labelled anti-mouse-IgG antibody to streptavidin-XL665. To this end, the fluorescence emissions at 620 nm and 665 nm were measured after excitation at 350 nm in a TR-FRET measuring instrument, for example a Rubystar (BMG Labtechnologies, Offenburg, Germany) or a Viewlux (Perkin-Elmer). The ratio of the emissions at 665 nm and 622 nm was taken as a measure of the amount of phosphorylated substrate. The data were normalized (enzyme reaction without test substance = 0% inhibition; all other assay components but no enzyme = 100% inhibition).

Row | SMILES | IC50 [nM]
1 | O=S1(=O)CC[C@H](Nc2nc(N3CCC(N4CCOCC4)CC3)c3cnn(-c4cccc(C(F)(F)F)c4)c3n2)C1 [Example I-33, N-[(3S)-1,1-dioxidotetrahydrothiophen-3-yl]-4-[4-(morpholin-4-yl)piperidin-1-yl]-1-[3-(trifluoromethyl)phenyl]-1H-pyrazolo[3,4-d]pyrimidin-6-amine] | 84.2
2 | O=S1(=O)CC[C@H](Nc2nc(N3CC(N4CCOCC4)C3)c3cnn(-c4cccc(C(F)(F)F)c4)c3n2)C1 [Example I-34, N-[(3S)-1,1-dioxidotetrahydrothiophen-3-yl]-4-[3-(morpholin-4-yl)azetidin-1-yl]-1-[3-(trifluoromethyl)phenyl]-1H-pyrazolo[3,4-d]pyrimidin-6-amine] | 85.1
3 | CS(=O)(=O)CC1CN(c2nc(N[C@@H]3CNC(=O)C3)nc3c2cnn3-c2cccc(C(F)(F)F)c2)C1 [Example I-35, (4S)-4-[(4-{3-[(methylsulfonyl)methyl]azetidin-1-yl}-1-[3-(trifluoromethyl)phenyl]-1H-pyrazolo[3,4-d]pyrimidin-6-yl)amino]pyrrolidin-2-one] | 16.5
4 | CN1CC[C@H](Nc2nc(N3CC(CS(C)(=O)=O)C3)c3cnn(-c4cccc(C(F)(F)F)c4)c3n2)C1 [Example I-36, N-[(3S)-1-methylpyrrolidin-3-yl]-4-{3-[(methylsulfonyl)methyl]azetidin-1-yl}-1-[3-(trifluoromethyl)phenyl]-1H-pyrazolo[3,4-d]pyrimidin-6-amine] | 45
5 | CN(C)C1(C)CN(c2nc(N[C@@H]3CNC(=O)C3)nc3c2cnn3-c2cccc(C(F)(F)F)c2)C1 [Example I-38, (4S)-4-({4-[3-(dimethylamino)-3-methylazetidin-1-yl]-1-[3-(trifluoromethyl)phenyl]-1H-pyrazolo[3,4-d]pyrimidin-6-yl}amino)pyrrolidin-2-one] | 16.2
6 | CN(C)C1(C)CN(c2nc(NC3CCS(=O)(=O)CC3)nc3c2cnn3-c2cccc(C(F)(F)F)c2)C1 [Example I-39, 4-[3-(dimethylamino)-3-methylazetidin-1-yl]-N-(1,1-dioxidotetrahydro-2H-thiopyran-4-yl)-1-[3-(trifluoromethyl)phenyl]-1H-pyrazolo[3,4-d]pyrimidin-6-amine] | 24.5
7 | CC1(O)CN(c2nc(N[C@@H]3CCN(S(C)(=O)=O)C3)nc3c2cnn3-c2cccc(C(F)(F)F)c2)C1 [Example I-41-1, 3-methyl-1-(6-{[(3R)-1-(methylsulfonyl)pyrrolidin-3-yl]amino}-1-[3-(trifluoromethyl)-phenyl]-1H-pyrazolo[3,4-d]pyrimidin-4-yl)azetidin-3-ol] | 250
8 | CC1(O)CN(c2nc(N[C@H]3CCN(S(C)(=O)=O)C3)nc3c2cnn3-c2cccc(C(F)(F)F)c2)C1 [Example I-41-2, 3-methyl-1-(6-{[(3S)-1-(methylsulfonyl)pyrrolidin-3-yl]amino}-1-[3-(trifluoromethyl)-phenyl]-1H-pyrazolo[3,4-d]pyrimidin-4-yl)azetidin-3-ol] | 400
9 | CN(C)C1CN(c2nc(NC3CCS(=O)(=O)CC3)nc3c2cnn3-c2cccc(C(F)(F)F)c2)C1 [Example I-42, 4-[3-(dimethylamino)azetidin-1-yl]-N-(1,1-dioxidotetrahydro-2H-thiopyran-4-yl)-1-[3-(trifluoromethyl)phenyl]-1H-pyrazolo[3,4-d]pyrimidin-6-amine] | 32
10 | CC1(Nc2nc(N3CC(N4CCOCC4)C3)c3cnn(-c4cccc(C(F)(F)F)c4)c3n2)CCS(=O)(=O)C1 (centres unmarked) [Example I-43, N-(3-methyl-1,1-dioxidotetrahydrothiophen-3-yl)-4-[3-(morpholin-4-yl)azetidin-1-yl]-1-[3-(trifluoromethyl)phenyl]-1H-pyrazolo[3,4-d]pyrimidin-6-amine] | 280
11 | CN(C)C1CN(c2nc(N[C@@H]3CNC(=O)C3)nc3c2cnn3-c2cccc(C(F)(F)F)c2)C1 [Example I-44, (4S)-4-({4-[3-(dimethylamino)azetidin-1-yl]-1-[3-(trifluoromethyl)phenyl]-1H-pyrazolo-[3,4-d]pyrimidin-6-yl}amino)pyrrolidin-2-one] | 15.7
12 | O=C(O)CC1CN(c2nc(N[C@@H]3CNC(=O)C3)nc3c2cnn3-c2cccc(C(F)(F)F)c2)C1 [Example I-50, [1-(6-{[(3S)-5-oxopyrrolidin-3-yl]amino}-1-[3-(trifluoromethyl)phenyl]-1H-pyrazolo[3,4-d]pyrimidin-4-yl)azetidin-3-yl]acetic acid] | 48.4
13 | O=S1(=O)CCN(C2CN(c3nc(NC4CC4)nc4c3cnn4-c3cccc(C(F)(F)F)c3)C2)CC1 [Example I-53, N-cyclopropyl-4-[3-(1,1-dioxidothiomorpholin-4-yl)azetidin-1-yl]-1-[3-(trifluoromethyl)-phenyl]-1H-pyrazolo[3,4-d]pyrimidin-6-amine] | 99.8
14 | CN(C)C1CN(c2nc(NC3CC(F)(F)C3)nc3c2cnn3-c2cccc(C(F)(F)F)c2)C1 [Example I-54, N-(3,3-difluorocyclobutyl)-4-[3-(dimethylamino)azetidin-1-yl]-1-[3-(trifluoromethyl)-phenyl]-1H-pyrazolo[3,4-d]pyrimidin-6-amine] | 297
15 | CS(=O)(=O)[C@H]1C[C@@H](Nc2nc(N3CC(N4CCOCC4)C3)c3cnn(-c4cccc(C(F)(F)F)c4)c3n2)C1 [Example I-55, N-[cis-3-(methylsulfonyl)cyclobutyl]-4-[3-(morpholin-4-yl)azetidin-1-yl]-1-[3-(trifluoromethyl)phenyl]-1H-pyrazolo[3,4-d]pyrimidin-6-amine] | 15.6
16 | CC(C)(O)C1CCN(c2nc(N[C@H]3C[C@@](O)(C(F)(F)F)C3)nc3c2cnn3-c2cccc(C(F)(F)F)c2)CC1 [Example I-63, trans-3-({4-[4-(2-hydroxypropan-2-yl)piperidin-1-yl]-1-[3-(trifluoromethyl)phenyl]-1H-pyrazolo[3,4-d]pyrimidin-6-yl}amino)-1-(trifluoromethyl)cyclobutanol] | 30.6
17 | CC(C)(O)C1CCN(c2nc(N[C@@H]3CN4CCC3CC4)nc3c2cnn3-c2cccc(C(F)(F)F)c2)CC1 [Example I-64-2] | 58.9
18 | CC(C)(O)C1CCN(c2nc(N[C@H]3C[C@@](C)(C(=O)O)C3)nc3c2cnn3-c2cccc(C(F)(F)F)c2)CC1 [Example I-66, cis-3-({4-[4-(2-hydroxypropan-2-yl)piperidin-1-yl]-1-[3-(trifluoromethyl)phenyl]-1H-pyrazolo[3,4-d]pyrimidin-6-yl}amino)-1-methylcyclobutanecarboxylic acid] | 138
19 | O[C@H]1COC[C@@H]1Nc1nc(N2CC(N3CCOCC3)C2)c2cnn(-c3cccc(C(F)(F)F)c3)c2n1 [Example I-69, (3R,4S)-4-({4-[3-(morpholin-4-yl)azetidin-1-yl]-1-[3-(trifluoromethyl)phenyl]-1H-pyrazolo[3,4-d]pyrimidin-6-yl}amino)tetrahydrofuran-3-ol] | 26.2
20 | CS(=O)(=O)C1CN(c2nc(N[C@H]3C[C@](C)(N)C3)nc3c2cnn3-c2cccc(C(F)(F)F)c2)C1 [Example I-71, trans-1-methyl-N^3-{4-[3-(methylsulfonyl)azetidin-1-yl]-1-[3-(trifluoromethyl)phenyl]-1H-pyrazolo[3,4-d]pyrimidin-6-yl}cyclobutane-1,3-diamine] | 15.3
